“And” between values parts separate entries of the source, which are not always exact repeats. Equal values may be shown once.

The experiment relates to transgenic soybean cv Jake. Nature of the experiment: Soybean greenhouse spray test, clones from T0 individuals, injury 0-9 point scale 1 week after treatment (Table 7A). The experiment is classed as in vivo, Glycine max. Here is the method: Soybean cv Jake was transformed as previously described by Siminszky et al., Phytochem Rev. 5:445-458 (2006). After regeneration, transformants were transplanted to soil in small pots, placed in growth chambers (16 hr day/8 hr night; 25° C. day/23° C. night; 65% relative humidity; 130-150 microE m-2 s-1) and subsequently tested for the presence of the T-DNA via Taqman analysis. After a few weeks, healthy, transgenic positive, single copy events were transplanted to larger pots and allowed to grow in the growth chamber. An optimal shoot for cutting was about 3-4 inches tall, with at least two nodes present. Each cutting was taken from the original transformant (mother plant) and dipped into rooting hormone powder (indole-3-butyric acid, IBA). The cutting was then placed in oasis wedges inside a bio-dome. The mother plant was taken to maturity in the greenhouse and harvested for seed. Wild type cuttings were also taken simultaneously to serve as negative controls. The cuttings were kept in the bio-dome for 5-7 days and then transplanted to 3 inch pots and then acclimated in the growth chamber for two more days. […] Other herbicides, such as AHAS (ALS—Acetolactate Synthase) inhibiting herbicides were also tested in a similar fashion for confirming cross resistance to other modes of action: Tritosulfuron, Florasulam, Metsulfuron, Rimsulfuron. Herbicide injury evaluations were taken at 2, 7, 14 and 21 days after treatment.
• 0 No Injury • 1 Minimal injury, only a few patches of leaf injury or chlorosis. • 2 Minimal injury with slightly stronger chlorosis. Overall growth points remain undamaged. • 3 Slightly stronger injury on secondary leaf tissue, but primary leaf and growth points are still undamaged. • 4 Overall plant morphology is slightly different, some chlorosis and necrosis in secondary growth points and leaf tissue. Stems are intact. Regrowth is highly probable within 1 week. • 5 Overall plant morphology is clearly different, some chlorosis and necrosis on a few leaves and growth points, but primary growth point is intact. Stem tissue is still green. Regrowth is highly probably within 1 week. • 6 Strong injury can be seen on the new leaflet growth. Plant has a high probability to survive only through regrowth at different growth points. Most of the leaves are chlorotic/necrotic but stem tissue is still green. May have regrowth but with noticeable injured appearance. • 7 Most of the active growth points are necrotic. There may be a single growth point that could survive and may be partially chlorotic or green and partially necrotic. Two leaves may still be chlorotic with some green; the rest of the plant including stem is necrotic. • 8 Plant will likely die, and all growth points are necrotic. One leaf may still be chlorotic with some green. The remainder of the plant is necrotic. • 9 Plant is dead. • * Not tested

On to `CC(C)N(C)S(=O)(=O)NC(=O)c1cc(-n2c(=O)cc(C(F)(F)F)n(C)c2=O)c(F)cc1Cl` [Saflufenacil, saflufenacil], for which the “injury (0-9 point scale) 1 week after treatment” value (“injury (0-9 point scale) 1 week” below) was 6 and 5 and 0 (2×) and 1 (2×) (Saflufenacil 12.5 g ai/ha, GOI AmtuPPX2L_F420L stacked with Bradi_1g07930.1_Zm); 4 (2×) and 1 and 6 (3×) and 0 (Saflufenacil 12.5 g ai/ha, GOI Bradi_1g07930.1_Zm); 6 and 0 (2×) and 2 (2×) (Saflufenacil 25 g ai/ha, GOI AmtuPPX2L_F420L stacked with Bradi_1g07930.1_Zm); 6 (4×) and 5 (2×) and 1 (Saflufenacil 25 g ai/ha, GOI Bradi_1g07930.1_Zm); 5 (2×) and 6 and 1 (3×) and 2 (3×) (Saflufenacil 50 g ai/ha, GOI AmtuPPX2L_F420L stacked with Bradi_1g07930.1_Zm); 1 (Saflufenacil 50 g ai/ha, GOI AmtuPPX2L_R128A_F420L stacked with Bradi_1g07930.1_Zm). In addition, the “injury (0-9 point scale) 1 week” value is, setting by setting: (Saflufenacil 50 g ai/ha, GOI AmtuPPX2L_R128A_F420V stacked with Bradi_1g07930.1_Zm) 1 (4×) and 2 (2×) and 6 and 4 and 3; (Saflufenacil 50 g ai/ha, GOI Bradi_1g07930.1_Zm) 6 (2×) and 5; (Saflufenacil 100 g ai/ha, GOI AmtuPPX2L_F420L stacked with Bradi_1g07930.1_Zm) 3 and 6 and 2; (Saflufenacil 100 g ai/ha, GOI AmtuPPX2L_R128A_F420L stacked with Bradi_1g07930.1_Zm) 0 and 3 and 1 (3×) and 2 (4×) and 6 and 4; (Saflufenacil 100 g ai/ha, GOI AmtuPPX2L_R128A_F420V stacked with Bradi_1g07930.1_Zm) 3 (5×) and 0 and 1 and 7 and 2 and 5 and 4; (Saflufenacil 100 g ai/ha, GOI Bradi_1g07930.1_Zm) 8 and 6. For the same compound, the “injury (0-9 point scale) 1 week” value was 2 (2×) and 6 (Saflufenacil 200 g ai/ha, GOI AmtuPPX2L_F420L stacked with Bradi_1g07930.1_Zm); 1 and 5 (2×) and 3 (2×) and 2 (4×) and 0 and 4 (Saflufenacil 200 g ai/ha, GOI AmtuPPX2L_R128A_F420L stacked with Bradi_1g07930.1_Zm); 2 (4×) and 5 (2×) and 3 (2×) and 7 and 6 and 8 (Saflufenacil 200 g ai/ha, GOI AmtuPPX2L_R128A_F420V stacked with Bradi_1g07930.1_Zm).
